Reference: article PMC9128166 (Cancer Science, 2022)
Several values for one entry are separate records, joined by “and”; a condition that tells them apart may be missing. Equal entries are not always repeated.

Tests used:
[1] = Plasma pharmacokinetics of parsaclisib, cycle 1 day 15; format: in vivo, Japanese patients; details: for Vd/F: Vz/F
[2] = Treatment-emergent adverse events; format: in vivo, Japanese patients
[3] = 10 mg QD, cycle 1 day 15, n 3, mean ± SD
[4] = 20 mg QD, cycle 1 day 15, n 11, mean ± SD
[5] = Any TEAE, QD dosing period (n = 17)
[6] = Any TEAE, QW dosing period (n = 12)
[7] = Grade ≥3 TEAE, QD dosing period (n = 17)
[8] = Grade ≥3 TEAE, QW dosing period (n = 12)

CCOc1c([C@H](C)n2nc(C)c3c(N)ncnc32)cc(Cl)c(F)c1[C@@H]1CNC(=O)C1 [parsaclisib]
Accumulation ratio [1, 3]: 1.4 ± 0.2 (1.4, 17.1)
CLss/F [1, 3]: 1.8 ± 0.6 (1.75, 30.9) L/h
Cmin [1, 3]: 227 ± 83.2 nM and 227 ± 83.2 (215, 36.6) nM
Tmax ([1]; 10 mg QD, cycle 1 day 15, n 3, median (range)): 1.0 (0.5–2.0) h
Accumulation ratio [1, 4]: 1.2 ± 0.1 (1.2, 11.3)
CLss/F [1, 4]: 2.3 ± 0.75 (2.2, 32.9) L/h
Cmin [1, 4]: 303 ± 155 nM and 303 ± 155 (271, 51.0) nM
CLss/F ([1]; Total (10 and 20 mg QD), cycle 1 day 15, n 14, mean ± SD): 2.2 ± 0.7 L/h and 2.2 ± 0.7 (2.1, 32.8) L/h
AUC ([1]; human, plasma, oral, 10 mg): 12.5 µM·h
Cmax ([1]; human, plasma, oral, 10 mg): 1440 ± 502 nM
Tmax ([1]; human, plasma, oral, 10 mg, Tmax, 10 mg QD, cycle 1 day 15, n 3, median (range)): 0.97 h
Vd/F ([1]; human, plasma, oral, 10 mg, 10 mg QD, cycle 1 day 15, n 3, mean ± SD): 31.3 ± 9.8 L
half-life ([1]; human, plasma, oral, 10 mg, t½, 10 mg QD, cycle 1 day 15, n 3, mean ± SD): 12.6 ± 4.6 h
AUC ([1]; human, plasma, oral, 20 mg): 20.5 µM·h
Cmax ([1]; human, plasma, oral, 20 mg): 2630 ± 530 nM
Tmax ([1]; human, plasma, oral, 20 mg, Tmax, 20 mg QD, cycle 1 day 15, n 11, median (range)): 0.55 h
Vd/F ([1]; human, plasma, oral, 20 mg, 20 mg QD, cycle 1 day 15, n 11, mean ± SD): 31.1 ± 10.2 L
half-life ([1]; human, plasma, oral, 20 mg, t½, 20 mg QD, cycle 1 day 15, n 11, mean ± SD): 9.8 ± 2.8 h
half-life ([1]; human, plasma, oral, steady‐state geometric mean t½, overall, dose‐independent): 9.9 h
Serious TEAE of pyrexia ([2]; 2 patients): 11.8%
rash (AESI), severity ([2]; 3 patients): 2 patients with grade 1 and 1 patient with grade 2
nausea (TEAE) ([2]; 4 of 17 patients, total): 23.5%
pyrexia (TEAE) ([2]; 4 of 17 patients, total): 23.5%
Serious TEAEs ([2]; 5 patients): 29.4%
TEAEs leading to dose reduction ([2]; 5 patients): 29.4%
decreased neutrophil count leading to dose interruption ([2]; 5 patients): 29.4%
constipation (TEAE) ([2]; 6 of 17 patients, total): 35.3%
Adverse events of special interest ([2]; 7 patients): 41.2%
TEAEs of grade 3 or higher ([2]; 11 patients): 64.7%
Constipation [2, 5]: 4 (23.5) n (%)
Cough [2, 5]: 2 (11.8) n (%)
Cystitis [2, 5]: 1 (5.9) n (%)
Diarrhea [2, 5]: 0 (0.0) n (%)
Drug eruption [2, 5]: 3 (17.6) n (%)
Dry eye [2, 5]: 0 (0.0) n (%)
Dry skin [2, 5]: 2 (11.8) n (%)
Fall [2, 5]: 2 (11.8) n (%)
Gastritis [2, 5]: 2 (11.8) n (%)
Headache [2, 5]: 2 (11.8) n (%)
Hyperkalemia [2, 5]: 0 (0.0) n (%)
Hypoalbuminemia [2, 5]: 2 (11.8) n (%)
Insomnia [2, 5]: 0 (0.0) n (%)
Myalgia [2, 5]: 1 (5.9) n (%)
Nasopharyngitis [2, 5]: 0 (0.0) n (%)
Nausea [2, 5]: 2 (11.8) n (%)
Pyrexia [2, 5]: 3 (17.6) n (%)
Rash [2, 5]: 1 (5.9) n (%)
Stomatitis [2, 5]: 2 (11.8) n (%)
Upper respiratory tract infection [2, 5]: 2 (11.8) n (%)
Constipation [2, 6]: 2 (16.7) n (%)
Cough [2, 6]: 0 (0.0) n (%)
Cystitis [2, 6]: 1 (8.3) n (%)
Diarrhea [2, 6]: 3 (25.0) n (%)
Drug eruption [2, 6]: 0 (0.0) n (%)
Dry eye [2, 6]: 2 (16.7) n (%)
Dry skin [2, 6]: 0 (0.0) n (%)
Fall [2, 6]: 0 (0.0) n (%)
Gastritis [2, 6]: 0 (0.0) n (%)
Headache [2, 6]: 1 (8.3) n (%)
Hyperkalemia [2, 6]: 2 (16.7) n (%)
Hypoalbuminemia [2, 6]: 0 (0.0) n (%)
Insomnia [2, 6]: 3 (25.0) n (%)
Myalgia [2, 6]: 1 (8.3) n (%)
Nasopharyngitis [2, 6]: 3 (25.0) n (%)
Nausea [2, 6]: 3 (25.0) n (%)
Pyrexia [2, 6]: 1 (8.3) n (%)
Rash [2, 6]: 2 (16.7) n (%)
Stomatitis [2, 6]: 0 (0.0) n (%)
Upper respiratory tract infection [2, 6]: 0 (0.0) n (%)
Constipation ([2]; Any TEAE, Total (N = 17)): 6 (35.3) n (%)
Cough ([2]; Any TEAE, Total (N = 17)): 2 (11.8) n (%)
Cystitis ([2]; Any TEAE, Total (N = 17)): 2 (11.8) n (%)
Diarrhea ([2]; Any TEAE, Total (N = 17)): 3 (17.6) n (%)
Drug eruption ([2]; Any TEAE, Total (N = 17)): 3 (17.6) n (%)
Dry eye ([2]; Any TEAE, Total (N = 17)): 2 (11.8) n (%)
Dry skin ([2]; Any TEAE, Total (N = 17)): 2 (11.8) n (%)
Fall ([2]; Any TEAE, Total (N = 17)): 2 (11.8) n (%)
Gastritis ([2]; Any TEAE, Total (N = 17)): 2 (11.8) n (%)
Headache ([2]; Any TEAE, Total (N = 17)): 3 (17.6) n (%)
Hyperkalemia ([2]; Any TEAE, Total (N = 17)): 2 (11.8) n (%)
Hypoalbuminemia ([2]; Any TEAE, Total (N = 17)): 2 (11.8) n (%)
Insomnia ([2]; Any TEAE, Total (N = 17)): 3 (17.6) n (%)
Myalgia ([2]; Any TEAE, Total (N = 17)): 2 (11.8) n (%)
Nasopharyngitis ([2]; Any TEAE, Total (N = 17)): 3 (17.6) n (%)
Nausea ([2]; Any TEAE, Total (N = 17)): 4 (23.5) n (%)
Pyrexia ([2]; Any TEAE, Total (N = 17)): 4 (23.5) n (%)
Rash ([2]; Any TEAE, Total (N = 17)): 3 (17.6) n (%)
Stomatitis ([2]; Any TEAE, Total (N = 17)): 2 (11.8) n (%)
Upper respiratory tract infection ([2]; Any TEAE, Total (N = 17)): 2 (11.8) n (%)
Constipation [2, 7]: 0 (0.0) n (%)
Cough [2, 7]: 0 (0.0) n (%)
Cystitis [2, 7]: 0 (0.0) n (%)
Diarrhea [2, 7]: 0 (0.0) n (%)
Drug eruption [2, 7]: 0 (0.0) n (%)
Dry eye [2, 7]: 0 (0.0) n (%)
Dry skin [2, 7]: 0 (0.0) n (%)
Fall [2, 7]: 0 (0.0) n (%)
Gastritis [2, 7]: 0 (0.0) n (%)
Headache [2, 7]: 0 (0.0) n (%)
Hyperkalemia [2, 7]: 0 (0.0) n (%)
Hypoalbuminemia [2, 7]: 1 (5.9) n (%)
Insomnia [2, 7]: 0 (0.0) n (%)
Myalgia [2, 7]: 0 (0.0) n (%)
Nasopharyngitis [2, 7]: 0 (0.0) n (%)
Nausea [2, 7]: 0 (0.0) n (%)
Pyrexia [2, 7]: 0 (0.0) n (%)
Rash [2, 7]: 0 (0.0) n (%)
Stomatitis [2, 7]: 0 (0.0) n (%)
Upper respiratory tract infection [2, 7]: 0 (0.0) n (%)
Constipation [2, 8]: 0 (0.0) n (%)
Cough [2, 8]: 0 (0.0) n (%)
Cystitis [2, 8]: 0 (0.0) n (%)
Diarrhea [2, 8]: 0 (0.0) n (%)
Drug eruption [2, 8]: 0 (0.0) n (%)
Dry eye [2, 8]: 0 (0.0) n (%)
Dry skin [2, 8]: 0 (0.0) n (%)
Fall [2, 8]: 0 (0.0) n (%)
Gastritis [2, 8]: 0 (0.0) n (%)
Headache [2, 8]: 0 (0.0) n (%)
Hyperkalemia [2, 8]: 0 (0.0) n (%)
Hypoalbuminemia [2, 8]: 0 (0.0) n (%)
Insomnia [2, 8]: 0 (0.0) n (%)
Myalgia [2, 8]: 0 (0.0) n (%)
Nasopharyngitis [2, 8]: 0 (0.0) n (%)
Nausea [2, 8]: 0 (0.0) n (%)
Pyrexia [2, 8]: 0 (0.0) n (%)
Rash [2, 8]: 0 (0.0) n (%)
Stomatitis [2, 8]: 0 (0.0) n (%)
Upper respiratory tract infection [2, 8]: 0 (0.0) n (%)
Constipation ([2]; Grade ≥3 TEAE, Total (N = 17)): 0 (0.0) n (%)
Cough ([2]; Grade ≥3 TEAE, Total (N = 17)): 0 (0.0) n (%)
Cystitis ([2]; Grade ≥3 TEAE, Total (N = 17)): 0 (0.0) n (%)
Diarrhea ([2]; Grade ≥3 TEAE, Total (N = 17)): 0 (0.0) n (%)
Drug eruption ([2]; Grade ≥3 TEAE, Total (N = 17)): 0 (0.0) n (%)
Dry eye ([2]; Grade ≥3 TEAE, Total (N = 17)): 0 (0.0) n (%)
Dry skin ([2]; Grade ≥3 TEAE, Total (N = 17)): 0 (0.0) n (%)
Fall ([2]; Grade ≥3 TEAE, Total (N = 17)): 0 (0.0) n (%)
Gastritis ([2]; Grade ≥3 TEAE, Total (N = 17)): 0 (0.0) n (%)
Headache ([2]; Grade ≥3 TEAE, Total (N = 17)): 0 (0.0) n (%)
Hyperkalemia ([2]; Grade ≥3 TEAE, Total (N = 17)): 0 (0.0) n (%)
Hypoalbuminemia ([2]; Grade ≥3 TEAE, Total (N = 17)): 1 (5.9) n (%)
Insomnia ([2]; Grade ≥3 TEAE, Total (N = 17)): 0 (0.0) n (%)
Myalgia ([2]; Grade ≥3 TEAE, Total (N = 17)): 0 (0.0) n (%)
Nasopharyngitis ([2]; Grade ≥3 TEAE, Total (N = 17)): 0 (0.0) n (%)
Nausea ([2]; Grade ≥3 TEAE, Total (N = 17)): 0 (0.0) n (%)
Pyrexia ([2]; Grade ≥3 TEAE, Total (N = 17)): 0 (0.0) n (%)
Rash ([2]; Grade ≥3 TEAE, Total (N = 17)): 0 (0.0) n (%)
Stomatitis ([2]; Grade ≥3 TEAE, Total (N = 17)): 0 (0.0) n (%)
Upper respiratory tract infection ([2]; Grade ≥3 TEAE, Total (N = 17)): 0 (0.0) n (%)
patients with at least one TEAE ([2]; N = 17): all patients
neutropenia leading to dose interruption ([2]; additional 2 patients): 11.8%
serious TEAE of pancreatitis ([2]; dose interruption on both occurrences, responded to corticosteroid): One patient experienced a serious TEAE of pancreatitis (grade 2, study days 78 and 145)
TEAEs leading to dose interruption ([2]; during QD dosing): 7 patients
TEAEs leading to dose reduction ([2]; during QD dosing): 2 patients
TEAEs leading to dose interruption ([2]; during QW dosing): 4 patients
TEAEs leading to dose reduction ([2]; during QW dosing): 3 patients
Varicella zoster infection (AESI) ([2]; grade 2 in severity, led to parsaclisib discontinuation): 1 patient
TEAEs leading to parsaclisib dose reduction (terms) ([2]; human, in vivo, oral): febrile neutropenia (1 patient), drug eruption and neutropenia in a single patient during the QD period, pancreatitis and pancreatitis relapsing in a single patient, and diarrhea (1 patient) and exfoliative dermatitis (1 patient) during the QW period
febrile neutropenia (AESI), occurrence and severity ([2]; human, in vivo, oral): Two patients experienced grade 3
exfoliative dermatitis (AESI), occurrence and severity ([2]; human, in vivo, oral, 64 day): One patient experienced grade 1
Nonhematologic grade 3 or higher TEAEs occurring in 1 patient each ([2]; in vivo): bile duct stenosis (secondary to pancreatitis), hypoalbuminemia, and lymphoma progression (metastases to meninges [lymphomatous meningitis])
Other serious TEAEs experienced by 1 patient each ([2]; in vivo): diarrhea, enteritis infection, febrile neutropenia, metastases to meninges, and pancreatitis
TEAEs with a fatal outcome ([2]; in vivo): no TEAEs with a fatal outcome
diarrhea (AESI), longest time to resolution ([2]; individual patients): 14 days and 18 days and 67 days
diarrhea (AESI), time to first onset ([2]; individual patients): 70 days and 108 days and 305 days
febrile neutropenia (AESI), time to onset ([2]; individual patients): 28 days and 63 days
febrile neutropenia (AESI), time to resolution ([2]; individual patients): 10 days and 2 days
rash (AESI), longest time to resolution ([2]; individual patients): 5 days and 8 days and 23 days
rash (AESI), time to onset of first occurrence ([2]; individual patients): 11 days and 50 days and 312 days
Varicella zoster infection (AESI), onset ([2]; one patient): 33 days
Varicella zoster infection (AESI), resolution ([2]; one patient): 21 days
exfoliative dermatitis (AESI), onset ([2]; one patient): 64 days
exfoliative dermatitis (AESI), resolution ([2]; one patient): 36 days
diarrhea (AESI), severity ([2]; three patients, none led to discontinuation): 1 patient with grade 1 and 2 patients with grade 2
